{"source": "patent US7045280B2", "about": "“Assay method” (AstraZeneca AB, priority 1999, dated 2006)", "format_in_all_cases": "biochemical", "key": {"Plasmin": {"target": "T1, Plasmin (Homo sapiens, UniProt P00747)", "T1 construct": "purchased Quadratech 810655", "T1 sequence (P00747 97-580 partner limits assumed)": "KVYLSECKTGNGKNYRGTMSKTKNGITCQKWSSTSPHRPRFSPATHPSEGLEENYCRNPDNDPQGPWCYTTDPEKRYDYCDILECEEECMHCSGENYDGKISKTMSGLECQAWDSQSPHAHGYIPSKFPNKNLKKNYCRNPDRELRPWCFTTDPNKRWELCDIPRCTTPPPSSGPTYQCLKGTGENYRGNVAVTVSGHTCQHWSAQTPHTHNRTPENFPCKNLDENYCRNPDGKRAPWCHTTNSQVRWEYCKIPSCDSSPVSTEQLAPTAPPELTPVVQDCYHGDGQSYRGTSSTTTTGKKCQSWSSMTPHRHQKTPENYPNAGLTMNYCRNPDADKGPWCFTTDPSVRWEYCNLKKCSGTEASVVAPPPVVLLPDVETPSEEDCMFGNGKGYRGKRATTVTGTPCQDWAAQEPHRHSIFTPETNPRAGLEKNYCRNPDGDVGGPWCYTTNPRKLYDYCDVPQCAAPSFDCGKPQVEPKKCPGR", "T1 sequence (P00747 581-810 limits assumed)": "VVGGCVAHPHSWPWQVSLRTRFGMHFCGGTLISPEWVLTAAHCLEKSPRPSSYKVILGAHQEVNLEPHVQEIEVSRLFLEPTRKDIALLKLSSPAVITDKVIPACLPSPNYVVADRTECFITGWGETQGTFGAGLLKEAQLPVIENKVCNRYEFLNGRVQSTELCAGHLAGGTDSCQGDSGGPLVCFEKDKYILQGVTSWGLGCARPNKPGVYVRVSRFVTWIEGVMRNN", "test": "Plasmin chromogenic substrate assay (S2251)", "procedure": "(§1) Briefly, uPA (high molecular weight uPA Calbiochem, Cat. 627081), tpA (Quadratech, Cat. 821157) or plasmin (Quadratech, Cat. 810655) were diluted-in buffer comprising 0.5M tris HCl, 0.1% tween 20 pH 8.3. Urokinase activity was measured in a final volume of 100 μl containing 0.4 mM S2444 in assay buffer by following the increase in absorbance at 405 nm. The activity of tPA was measured in a final volume of 100 μl, containing 230 nM Spectrozyrne tPA substrate (American Diagnostica, Cat. 444L) and 40 μg per ml tPA stimulator (fibrin, Quadratech, Cat. 821116) and following the increase in absorbance at 405 nm. Plasmin activity was measured in a final volume of 100 μl containing 0.66 mM S2251, and following the increase in absorbance at 405 nm."}, "uPA": {"target": "T2, uPA (Homo sapiens, UniProt P00749)", "T2 construct": "uPA (high molecular weight uPA Calbiochem, Cat. 627081); purchased Calbiochem 627081", "test": "uPA chromogenic substrate assay (S2444)", "procedure": "as §1"}, "tPA": {"target": "T3, tPA (Homo sapiens, UniProt P00750)", "T3 construct": "purchased Quadratech 821157", "T3 sequence (P00750 36-562)": "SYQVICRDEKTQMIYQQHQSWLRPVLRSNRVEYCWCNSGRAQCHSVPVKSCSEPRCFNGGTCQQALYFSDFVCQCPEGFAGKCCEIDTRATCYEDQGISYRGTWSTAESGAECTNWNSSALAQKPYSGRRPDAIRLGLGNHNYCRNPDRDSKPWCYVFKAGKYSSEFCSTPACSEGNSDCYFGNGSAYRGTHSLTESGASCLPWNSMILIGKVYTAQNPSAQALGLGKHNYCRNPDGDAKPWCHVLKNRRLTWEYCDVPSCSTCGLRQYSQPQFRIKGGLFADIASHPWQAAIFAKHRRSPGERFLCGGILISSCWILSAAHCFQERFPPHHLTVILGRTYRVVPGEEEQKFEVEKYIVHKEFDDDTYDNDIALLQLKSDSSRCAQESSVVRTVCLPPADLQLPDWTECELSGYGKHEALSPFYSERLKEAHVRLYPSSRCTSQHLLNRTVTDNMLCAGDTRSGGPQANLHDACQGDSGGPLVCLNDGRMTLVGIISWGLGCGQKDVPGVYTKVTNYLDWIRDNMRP", "test": "tPA chromogenic substrate assay (Spectrozyme tPA, fibrin stimulator)", "procedure": "as §1"}}, "data": [{"smiles": "CC(C)[C@H](NC(=O)c1ccc(C(=O)NS(=O)(=O)c2ccc(Br)cc2)cc1)C(=O)N1CCC[C@H]1C(=O)N[C@H](C(=O)C(F)(F)F)C(C)C", "note": "[elastase inhibitor, 3S-[4-[(4-bromophenyl)sulfonylaminocarbonyl]phenylcarbonyl]-L-valyl-N-[3-(1,1,1-trifluoro-4-methyl-2-oxopentyl)]-L-prolinamide]", "values": [{"measurement": "% inhibition", "setting": "Plasmin; 100 μM elastase inhibitor, Plasmin (2.5 μg ml-1), 0.66 mM S2251, absorbance at 405 nm", "result": 2, "unit": "%"}, {"measurement": "inhibition of plasmin activity (in words)", "setting": "Plasmin; chromogenic substrate assay", "result": "did not significantly inhibit"}, {"measurement": "% inhibition", "setting": "uPA; 100 μM elastase inhibitor, uPA (5 nM), 0.4 mM S2444, absorbance at 405 nm", "result": 2, "unit": "%"}, {"measurement": "inhibition of uPA activity (in words)", "setting": "uPA; chromogenic substrate assay", "result": "did not significantly inhibit"}, {"measurement": "% inhibition", "setting": "tPA; 100 μM elastase inhibitor, tPA (30 nM), Spectrozyme tPA substrate, 40 μg per ml tPA stimulator, absorbance at 405 nm", "result": 9, "unit": "%"}, {"measurement": "inhibition of tPA activity (in words)", "setting": "tPA; chromogenic substrate assay", "result": "did not significantly inhibit"}]}]}
